Measurements: the supplement of paper PMC11061612

Legend:
KP-N-YN (Neuroblastoma) = assay: combination Emax (second highest fraction inhibited in the dose matrix, 72 h); higher = more inhibition; extreme values may be limits of the assay
Summary of the method: (§1)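 Cell lines in DMEM/F12 or RPMI with 10% FBS were plated in 1536-well plates, held 24 hours at 37°C, 5% CO2, then given two-drug dose matrices for 72 hours (DMSO typically 0.2%). Viability was read by CellTiter-Glo 2.0 luminescence and scaled as inhibition from 0 (vehicle wells) to 1 (blank wells). Combination Emax is the second-highest inhibition in the matrix; Bliss excess is observed combination effect minus expected EA + EB − EA·EB, EA and EB being single-agent effects.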

[1] = tested on: DU-4475 (Breast Carcinoma); assay: Bliss excess, mean over the matrix (fraction); higher = more synergy
Summary of the method: as §1

[2] = tested on: GA-10 (Burkitt's Lymphoma); assay: as above
Summary of the method: as §1

[3] = tested on: LS-411N (Colorectal Carcinoma); assay: as above
Summary of the method: as §1

[4] = tested on: NCI-H2228 (Lung Adenocarcinoma); assay: as above
Summary of the method: as §1

[5] = tested on: A253 (Head and Neck Carcinoma); assay: as above
Summary of the method: as §1

[6] = tested on: JVM-2 (B-Cell Non-Hodgkin's Lymphoma); assay: as above
Summary of the method: as §1

[7] = tested on: HT55 (Colorectal Carcinoma); assay: as above
Summary of the method: as §1

[8] = tested on: HCC1428 (Breast Carcinoma); assay: as above
Summary of the method: as §1

[9] = tested on: CAL-27 (Oral Cavity Carcinoma); assay: as above
Summary of the method: as §1

[10] = tested on: Jurkat (T-Lymphoblastic Leukemia); assay: as above
Summary of the method: as §1

EW-16 (Ewing's Sarcoma) = assay: as above
Summary of the method: as §1

[11] = tested on: NCI-H841 (Small Cell Lung Carcinoma); assay: combination Emax (second highest fraction inhibited in the dose matrix, 72 h); higher = more inhibition; extreme values may be limits of the assay
Summary of the method: as §1

MKN1 (Gastric Carcinoma) [12] = assay: as above
Summary of the method: as §1

[13] = tested on: NCI-H841 (Small Cell Lung Carcinoma); assay: Bliss excess, mean over the matrix (fraction); higher = more synergy
Summary of the method: as §1

MKN1 (Gastric Carcinoma) [14] = assay: as above
Summary of the method: as §1
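Wherever Bliss excess, mean over the matrix is given: after 72 h of two-drug dosing.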

Structure (SMILES) | combination Emax (KP-N-YN (Neuroblastoma)) | Bliss excess [1] | Bliss excess [2] | Bliss excess [3] | Bliss excess [4] | Bliss excess [5] | Bliss excess [6] | Bliss excess [7] | Bliss excess [8] | Bliss excess [9] | Bliss excess [10] | Bliss excess (EW-16 (Ewing's Sarcoma)) | combination Emax [11] | combination Emax (MKN1 (Gastric Carcinoma) [12]) | Bliss excess [13] | Bliss excess (MKN1 (Gastric Carcinoma) [14])
Cc1cc2ncnn2cc1Nc1ncc2c(n1)n(C1CCOCC1)c(=O)n2C [AZD7648] + O=C(c1cc(Cc2n[nH]c(=O)c3ccccc23)ccc1F)N1CCN(C(=O)C2CC2)CC1 [Olaparib] (first compound max 10 µM, 7x7, partner max 10 µM) | 0.346 | 0.0289 | -0.0398 | -0.0195 | -0.0728 | -0.0419 | -0.0275 | -0.0497 | -0.0562 | -0.0448 | 0.108 | -0.0484 |  |  |  | 
N#Cc1cnc(Nc2cc(NC[C@H]3CNCCO3)c(C(F)(F)F)cn2)cn1 [SRA737] + Nc1ccn([C@@H]2O[C@H](CO)[C@@H](O)C2(F)F)c(=O)n1 [Gemcitabine] (first compound max 10 µM, 7x7, partner max 0.3 µM) |  |  |  |  |  |  |  |  |  |  |  |  | 0.818 | 0.867 | 0.0776 | 0.0588
COc1nnc2ccc(N3CCC(c4ccc(OCCN5CCN(C)C(=O)[C@H]5C)cc4)CC3)nn12 [AZD5153] + CN(CC[C@H](CSC1=CC=CC=C1)NC2=C(C=C(C=C2)S(=O)(=O)NC(=O)C3=CC=C(C=C3)N4CCC(CC4)[C@H](C5=CC=CC=C5C6=CC=C(C=C6)Cl)O)S(=O)(=O)C(F)(F)F)CCO [AZD4320] (first compound max 1 µM, 7x7, partner max 1 µM) |  | 0.0779 | -0.0394 | 0.0969 | 0.0351 | 0.0043 | 0.0973 | -0.0021 | 0.0114 | 0.0151 | 0.041 | 0.0851 |  |  |  | 
N#Cc1cnc(Nc2cc(NC[C@H]3CNCCO3)c(C(F)(F)F)cn2)cn1 [SRA737] + CCc1c2c(nc3ccc(O)cc13)-c1cc3c(c(=O)n1C2)COC(=O)[C@]3(O)CC [SN-38] (first compound max 10 µM, 7x7, partner max 0.3 µM) |  |  |  |  |  |  |  |  |  |  |  |  | 0.62 | 0.866 | 0.044 | 0.0303
COc1cc2c(cc1OCCCCCOc1cc3c(cc1OC)C(=O)N1C=C(C)C[C@H]1C=N3)N=C[C@@H]1CC(C)=CN1C2=O [SG3199] + O=C(c1cc(Cc2n[nH]c(=O)c3ccccc23)ccc1F)N1CCN(C(=O)C2CC2)CC1 [Olaparib] (first compound max 0.001 µM, 7x7, partner max 10 µM) | 0.341 | 0.0741 | -0.0335 | -0.0255 | -0.0607 | -0.0426 | -0.0219 | -0.0358 | -0.0676 | -0.0664 | 0.0874 | -0.0066 |  |  |  | 
CN(CCO)CC[C@H](CSc1ccccc1)Nc1ccc(S(=O)(=O)NC(=O)c2ccc(N3CCC([C@@H](O)c4ccccc4-c4ccc(Cl)cc4)CC3)cc2)cc1S(=O)(=O)C(F)(F)F [AZD4320] + C1CN(CCC1(C(=O)N[C@@H](CCO)C2=CC=C(C=C2)Cl)N)C3=NC=NC4=C3C=CN4 [Capivasertib] (first compound max 1 µM, 7x7, partner max 3 µM) |  | 0.069 | -0.0283 | -0.048 | -0.0392 | -0.0035 | -0.0068 | -0.0469 | -0.0092 | -0.0362 | -0.0203 | -0.0469 |  |  |  | 
CC(=O)c1c(C)c2cnc(Nc3ccc(N4CCNCC4)cn3)nc2n(C2CCCC2)c1=O [Palbociclib] + CN(CC[C@H](CSC1=CC=CC=C1)NC2=C(C=C(C=C2)S(=O)(=O)NC(=O)C3=CC=C(C=C3)N4CCC(CC4)[C@H](C5=CC=CC=C5C6=CC=C(C=C6)Cl)O)S(=O)(=O)C(F)(F)F)CCO [AZD4320] (first compound max 10 µM, 7x7, partner max 1 µM) |  | 0.0318 | -0.0385 | -0.0089 | -0.0627 | -0.101 | -0.0143 | -0.043 | -0.082 | -0.0667 | -0.0316 | -0.127 |  |  |  | 
N#Cc1cnc(Nc2cc(NC[C@H]3CNCCO3)c(C(F)(F)F)cn2)cn1 [SRA737] + C=CCn1c(=O)c2cnc(Nc3ccc(N4CCN(C)CC4)cc3)nc2n1-c1cccc(C(C)(C)O)n1 [AZD1775] (first compound max 10 µM, partner max 1 µM) |  |  |  |  |  |  |  |  |  |  |  |  | 0.514 | 0.916 | 0.0292 | 0.0971
